Experimental data taken from ChEMBL document CHEMBL3400143, “Discovery and hit-to-lead optimization of 2,6-diaminopyrimidine inhibitors of interleukin-1 receptor-associated kinase 4” (Bioorg Med Chem Lett, 2015).
Activity calls are given as the source filed them. The calls are words filed in the database; no cut-off is given here.

Experiments:
[1] = biological target: T1, Interleukin-1 receptor-associated kinase 4 (Homo sapiens, UniProt Q9NWZ3); assay: Inhibition of N-terminal GST tagged human recombinant full-length IRAK4 expressed in Sf9 insect cells assessed as reduction in substrate phosphorylation using RP7030 peptide substrate and ATP incubated for 30 mins fluorescence polarization assay
T1 sequence (Q9NWZ3 whole entry): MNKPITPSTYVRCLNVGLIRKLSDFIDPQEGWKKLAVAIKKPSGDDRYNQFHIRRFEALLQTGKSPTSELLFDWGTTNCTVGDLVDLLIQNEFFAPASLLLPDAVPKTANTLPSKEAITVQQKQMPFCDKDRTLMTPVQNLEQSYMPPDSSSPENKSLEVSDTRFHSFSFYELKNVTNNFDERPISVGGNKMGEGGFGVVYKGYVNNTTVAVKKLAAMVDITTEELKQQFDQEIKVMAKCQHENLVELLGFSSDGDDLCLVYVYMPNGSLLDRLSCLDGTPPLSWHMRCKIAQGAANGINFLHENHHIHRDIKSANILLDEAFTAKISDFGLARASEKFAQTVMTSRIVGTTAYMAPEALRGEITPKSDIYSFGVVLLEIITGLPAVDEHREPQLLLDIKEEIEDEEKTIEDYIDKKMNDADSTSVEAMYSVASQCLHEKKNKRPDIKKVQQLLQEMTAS

[2] = biological target: Dual specificity protein kinase CLK4 (Homo sapiens) (UniProt Q9HAZ1); assay: Inhibition of CLK4 (unknown origin)
[3] = biological target: Receptor-type tyrosine-protein kinase FLT3 (Homo sapiens) (UniProt P36888); assay: Inhibition of FLT3 (unknown origin)
[4] = biological target: Mitogen-activated protein kinase kinase kinase kinase 4 (Homo sapiens) (UniProt O95819); assay: Inhibition of MAP4K4 (unknown origin)
[5] = biological target: High affinity nerve growth factor receptor (Homo sapiens) (UniProt P04629); assay: Inhibition of TRKA (unknown origin)
[6] = biological target: BDNF/NT-3 growth factors receptor (Homo sapiens) (UniProt Q16620); assay: Inhibition of TRKB (unknown origin)
[7] = biological target: NT-3 growth factor receptor (Homo sapiens) (UniProt Q16288); assay: Inhibition of TRKC (unknown origin)
NT-3 growth factor receptor (Homo sapiens), sequence (Q16288 32-839 limits assumed): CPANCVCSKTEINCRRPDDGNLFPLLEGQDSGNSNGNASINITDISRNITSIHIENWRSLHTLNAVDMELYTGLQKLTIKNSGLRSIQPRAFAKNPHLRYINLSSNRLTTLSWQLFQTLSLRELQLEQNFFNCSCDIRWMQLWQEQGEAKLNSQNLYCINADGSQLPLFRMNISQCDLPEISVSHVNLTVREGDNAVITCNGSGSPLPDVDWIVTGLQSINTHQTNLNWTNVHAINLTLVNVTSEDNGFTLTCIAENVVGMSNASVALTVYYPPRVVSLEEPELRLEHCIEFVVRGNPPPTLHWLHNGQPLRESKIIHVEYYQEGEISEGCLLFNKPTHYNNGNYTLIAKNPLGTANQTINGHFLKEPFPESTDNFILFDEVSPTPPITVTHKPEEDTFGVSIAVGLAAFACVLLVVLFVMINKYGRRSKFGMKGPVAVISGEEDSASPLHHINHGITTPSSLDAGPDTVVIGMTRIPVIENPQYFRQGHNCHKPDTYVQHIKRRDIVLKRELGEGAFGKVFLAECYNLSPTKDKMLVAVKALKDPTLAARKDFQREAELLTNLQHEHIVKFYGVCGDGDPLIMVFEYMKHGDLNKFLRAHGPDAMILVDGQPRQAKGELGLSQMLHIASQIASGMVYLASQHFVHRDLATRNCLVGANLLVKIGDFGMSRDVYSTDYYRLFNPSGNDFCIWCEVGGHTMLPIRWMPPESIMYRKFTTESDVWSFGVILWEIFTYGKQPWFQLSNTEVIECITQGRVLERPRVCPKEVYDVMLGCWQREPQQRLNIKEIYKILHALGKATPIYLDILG

Receptor-type tyrosine-protein kinase FLT3 (Homo sapiens), sequence (P36888 whole entry): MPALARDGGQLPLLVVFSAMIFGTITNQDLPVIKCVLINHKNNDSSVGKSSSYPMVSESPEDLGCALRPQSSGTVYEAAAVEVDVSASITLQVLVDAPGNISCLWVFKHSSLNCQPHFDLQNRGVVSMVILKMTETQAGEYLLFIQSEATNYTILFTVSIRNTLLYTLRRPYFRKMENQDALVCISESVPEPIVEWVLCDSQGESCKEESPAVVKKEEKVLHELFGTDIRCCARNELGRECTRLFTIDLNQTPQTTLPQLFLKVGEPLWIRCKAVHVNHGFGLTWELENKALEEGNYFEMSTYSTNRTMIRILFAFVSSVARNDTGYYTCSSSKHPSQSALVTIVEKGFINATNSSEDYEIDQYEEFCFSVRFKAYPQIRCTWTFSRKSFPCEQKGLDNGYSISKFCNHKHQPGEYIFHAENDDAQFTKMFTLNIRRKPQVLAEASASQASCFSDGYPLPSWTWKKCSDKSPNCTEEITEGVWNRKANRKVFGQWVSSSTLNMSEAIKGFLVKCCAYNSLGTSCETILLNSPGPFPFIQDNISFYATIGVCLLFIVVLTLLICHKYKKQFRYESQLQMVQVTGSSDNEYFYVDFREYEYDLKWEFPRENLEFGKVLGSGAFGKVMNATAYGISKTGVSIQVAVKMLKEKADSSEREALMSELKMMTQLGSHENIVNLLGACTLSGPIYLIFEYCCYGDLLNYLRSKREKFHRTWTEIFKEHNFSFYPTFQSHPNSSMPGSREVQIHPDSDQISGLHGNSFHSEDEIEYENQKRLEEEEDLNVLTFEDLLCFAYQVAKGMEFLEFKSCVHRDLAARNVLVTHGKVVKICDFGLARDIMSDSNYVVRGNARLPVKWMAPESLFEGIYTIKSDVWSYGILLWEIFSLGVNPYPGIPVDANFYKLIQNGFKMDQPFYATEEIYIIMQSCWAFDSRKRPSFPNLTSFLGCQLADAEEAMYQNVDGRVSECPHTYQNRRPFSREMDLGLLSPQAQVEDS
BDNF/NT-3 growth factors receptor (Homo sapiens), sequence (Q16620 32-822 limits assumed): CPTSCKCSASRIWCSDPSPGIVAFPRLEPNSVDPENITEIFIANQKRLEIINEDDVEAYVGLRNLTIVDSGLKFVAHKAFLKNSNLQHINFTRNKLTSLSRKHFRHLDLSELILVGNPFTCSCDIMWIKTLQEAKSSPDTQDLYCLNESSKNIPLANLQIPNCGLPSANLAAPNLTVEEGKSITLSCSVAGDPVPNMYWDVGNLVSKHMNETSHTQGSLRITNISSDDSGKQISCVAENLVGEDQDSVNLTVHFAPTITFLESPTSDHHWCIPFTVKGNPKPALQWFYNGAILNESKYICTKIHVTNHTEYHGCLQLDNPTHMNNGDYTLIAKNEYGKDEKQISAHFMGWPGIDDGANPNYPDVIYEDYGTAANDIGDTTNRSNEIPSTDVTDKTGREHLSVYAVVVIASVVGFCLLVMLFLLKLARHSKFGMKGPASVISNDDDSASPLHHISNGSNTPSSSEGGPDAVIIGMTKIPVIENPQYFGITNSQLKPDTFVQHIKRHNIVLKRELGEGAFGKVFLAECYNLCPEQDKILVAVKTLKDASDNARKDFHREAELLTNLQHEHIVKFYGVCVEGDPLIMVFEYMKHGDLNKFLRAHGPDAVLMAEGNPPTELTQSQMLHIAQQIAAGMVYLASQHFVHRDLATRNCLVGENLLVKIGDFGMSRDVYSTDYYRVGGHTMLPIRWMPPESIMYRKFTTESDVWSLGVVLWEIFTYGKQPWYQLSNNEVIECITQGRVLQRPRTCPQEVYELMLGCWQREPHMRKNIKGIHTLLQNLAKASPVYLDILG
High affinity nerve growth factor receptor (Homo sapiens), sequence (P04629 33-796 limits assumed): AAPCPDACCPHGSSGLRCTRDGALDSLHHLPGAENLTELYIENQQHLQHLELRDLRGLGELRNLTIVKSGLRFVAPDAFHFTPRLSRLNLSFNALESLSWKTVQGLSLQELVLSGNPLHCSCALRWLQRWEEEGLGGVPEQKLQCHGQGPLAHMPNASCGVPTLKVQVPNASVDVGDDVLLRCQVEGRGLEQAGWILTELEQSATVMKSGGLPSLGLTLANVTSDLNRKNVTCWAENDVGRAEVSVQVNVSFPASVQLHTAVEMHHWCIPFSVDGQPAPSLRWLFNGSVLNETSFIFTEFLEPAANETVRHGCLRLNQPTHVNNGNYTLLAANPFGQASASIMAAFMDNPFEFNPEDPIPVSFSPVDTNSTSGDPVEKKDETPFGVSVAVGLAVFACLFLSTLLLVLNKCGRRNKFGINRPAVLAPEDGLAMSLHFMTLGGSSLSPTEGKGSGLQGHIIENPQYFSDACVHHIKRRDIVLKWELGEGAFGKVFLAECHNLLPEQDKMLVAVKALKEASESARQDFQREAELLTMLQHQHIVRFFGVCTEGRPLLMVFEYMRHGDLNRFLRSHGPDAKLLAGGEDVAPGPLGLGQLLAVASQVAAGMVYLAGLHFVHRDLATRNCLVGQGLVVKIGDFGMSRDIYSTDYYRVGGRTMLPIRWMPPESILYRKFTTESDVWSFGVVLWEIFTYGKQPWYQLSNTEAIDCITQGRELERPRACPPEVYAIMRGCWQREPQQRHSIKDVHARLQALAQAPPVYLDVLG
Dual specificity protein kinase CLK4 (Homo sapiens), sequence (Q9HAZ1 whole entry, looked up): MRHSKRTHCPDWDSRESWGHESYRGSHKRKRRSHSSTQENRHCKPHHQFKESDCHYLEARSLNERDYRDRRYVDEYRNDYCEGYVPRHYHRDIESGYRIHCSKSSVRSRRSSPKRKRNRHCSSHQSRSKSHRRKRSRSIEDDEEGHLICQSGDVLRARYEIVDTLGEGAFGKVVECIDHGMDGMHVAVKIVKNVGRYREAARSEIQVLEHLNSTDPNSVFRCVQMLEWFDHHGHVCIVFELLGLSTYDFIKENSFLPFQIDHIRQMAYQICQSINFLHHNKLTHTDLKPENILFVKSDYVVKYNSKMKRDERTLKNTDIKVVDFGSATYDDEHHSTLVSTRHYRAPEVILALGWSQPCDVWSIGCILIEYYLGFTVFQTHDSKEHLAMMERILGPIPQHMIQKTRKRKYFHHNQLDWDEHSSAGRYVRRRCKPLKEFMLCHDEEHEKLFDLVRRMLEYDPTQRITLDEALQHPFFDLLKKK
Mitogen-activated protein kinase kinase kinase kinase 4 (Homo sapiens), sequence (O95819 2-1239 limits assumed): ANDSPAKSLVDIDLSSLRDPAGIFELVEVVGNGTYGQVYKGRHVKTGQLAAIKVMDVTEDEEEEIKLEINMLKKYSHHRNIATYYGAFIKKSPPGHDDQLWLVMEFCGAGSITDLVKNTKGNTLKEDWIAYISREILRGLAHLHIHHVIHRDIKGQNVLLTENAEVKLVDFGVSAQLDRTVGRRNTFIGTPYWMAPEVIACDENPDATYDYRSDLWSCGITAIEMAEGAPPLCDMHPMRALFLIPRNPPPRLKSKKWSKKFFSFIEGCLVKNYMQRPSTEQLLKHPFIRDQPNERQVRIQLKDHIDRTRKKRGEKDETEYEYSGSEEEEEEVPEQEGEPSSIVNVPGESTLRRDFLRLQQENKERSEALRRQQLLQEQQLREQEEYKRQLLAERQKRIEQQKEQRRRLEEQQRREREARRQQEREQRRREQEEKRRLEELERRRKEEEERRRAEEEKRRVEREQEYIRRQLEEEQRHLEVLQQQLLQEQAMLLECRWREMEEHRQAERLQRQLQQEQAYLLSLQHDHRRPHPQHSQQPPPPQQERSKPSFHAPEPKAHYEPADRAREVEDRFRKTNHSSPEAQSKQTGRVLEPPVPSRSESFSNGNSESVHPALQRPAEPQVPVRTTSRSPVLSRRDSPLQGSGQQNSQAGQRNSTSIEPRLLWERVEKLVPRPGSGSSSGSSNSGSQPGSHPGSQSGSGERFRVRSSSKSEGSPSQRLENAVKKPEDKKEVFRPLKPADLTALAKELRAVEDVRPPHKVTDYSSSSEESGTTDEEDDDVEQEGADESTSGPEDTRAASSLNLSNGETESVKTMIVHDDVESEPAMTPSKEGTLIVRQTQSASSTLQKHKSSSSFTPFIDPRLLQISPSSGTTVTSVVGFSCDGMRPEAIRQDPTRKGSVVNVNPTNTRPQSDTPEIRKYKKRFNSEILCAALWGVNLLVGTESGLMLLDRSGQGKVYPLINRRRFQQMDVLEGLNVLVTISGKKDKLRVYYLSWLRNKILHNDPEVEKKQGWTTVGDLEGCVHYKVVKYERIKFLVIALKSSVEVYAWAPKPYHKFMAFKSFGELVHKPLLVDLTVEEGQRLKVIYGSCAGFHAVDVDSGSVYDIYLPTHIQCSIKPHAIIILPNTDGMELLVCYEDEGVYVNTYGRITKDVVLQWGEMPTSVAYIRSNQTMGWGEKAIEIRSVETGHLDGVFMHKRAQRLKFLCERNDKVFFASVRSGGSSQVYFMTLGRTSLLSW

Row | SMILES | IC50 [1] [µM] | inhibition [2] | inhibition [3] | inhibition [4] | inhibition [5] | inhibition [6] | inhibition [7]
1 | Nc1ncc(-c2ncc(-c3ccccc3)s2)c(N[C@@H]2C[C@H](CO)[C@@H](O)[C@H]2O)n1 | > 20 | Active | Active | Active | Active | Active | Active
2 | N#Cc1nc(N)nc(N[C@@H]2C[C@H](CO)[C@@H](O)[C@H]2O)c1-c1nc2ccccc2s1 | > 20 | Active | Active | Active | Active | Active | Active
3 | Nc1ncc(-c2ccccc2)c(N[C@@H]2C[C@H](CO)[C@@H](O)[C@H]2O)n1 | > 20 | Active | Active | Active | Active | Active | Active
4 | CCCNc1nc(C)c(-c2nc3ccccc3s2)c(N[C@H]2CC[C@@H](CO)C2)n1 (racemic) | > 20 | Active | Active | Active | Active | Active | Active
5 | Nc1ncc(-c2nc3cnccc3s2)c(N[C@@H]2C[C@H](CO)[C@@H](O)[C@H]2O)n1 | – | Active | Active | Active | Active | Active | Active
6 | Nc1nc(N[C@@H]2C[C@H](CO)[C@@H](O)[C@H]2O)c(-c2nc3ccccc3s2)c(C(F)(F)F)n1 | > 20 | Active | Active | Active | Active | Active | Active
7 | Cn1c(-c2cnc(N)nc2N[C@@H]2C[C@H](CO)[C@@H](O)[C@H]2O)nc2ccccc21 | > 20 | Active | Active | Active | Active | Active | Active
8 | Nc1ncc(-c2nc3ccncc3s2)c(N[C@@H]2C[C@H](CO)[C@@H](O)[C@H]2O)n1 | – | Active | Active | Active | Active | Active | Active
9 | COc1nc(N)nc(N[C@@H]2C[C@H](CO)[C@@H](O)[C@H]2O)c1-c1nc2ccccc2s1 | > 20 | Active | Active | Active | Active | Active | Active
10 | CCCNc1nc(C)c(-c2nc3ccccc3s2)c(N2CCOCC2)n1 | > 20 | Active | Active | Active | Active | Active | Active
11 | Cc1nc(NCC2CC2)nc(N[C@@H]2C[C@H](CO)[C@@H](O)[C@H]2O)c1-c1nc2ccccc2s1 | > 20 | Active | Active | Active | Active | Active | Active
12 | Nc1ncc(-c2ccc3ccccc3n2)c(N[C@@H]2C[C@H](CO)[C@@H](O)[C@H]2O)n1 | – | Active | Active | Active | Active | Active | Active
13 | Nc1nc(N[C@@H]2C[C@H](CO)[C@@H](O)[C@H]2O)c(-c2nc3ccccc3s2)c(C2CC2)n1 | > 20 | Active | Active | Active | Active | Active | Active
14 | CCCNc1nc(C)c(-c2nc3ccccc3s2)c(N[C@@H]2CC[C@@H](O)[C@H]2O)n1 (racemic) | > 20 | Active | Active | Active | Active | Active | Active
15 | Nc1ncc(-c2nc3ccccc3o2)c(N[C@@H]2C[C@H](CO)[C@@H](O)[C@H]2O)n1 | – | Active | Active | Active | Active | Active | Active
16 | Nc1ncc(-c2nc(-c3ccccc3)cs2)c(N[C@@H]2C[C@H](CO)[C@@H](O)[C@H]2O)n1 | – | Active | Active | Active | Active | Active | Active

More lines, in order of falling IC50 [1], values ahead:

Row | IC50 [1] [µM] | inhibition [2] | inhibition [3] | inhibition [4] | inhibition [5] | inhibition [6] | inhibition [7] | SMILES
17 | 42 | Active | Active | Active | Active | Active | Active | OC[C@H]1C[C@@H](Nc2nc(Nc3ccccc3)ncc2-c2nc3ccccc3s2)[C@H](O)[C@@H]1O
18 | 6.85 | Active | Active | Active | Active | Active | Active | CCc1nc(N)nc(N[C@@H]2C[C@H](CO)[C@@H](O)[C@H]2O)c1-c1nc2ccccc2s1
19 | 6 | Active | Active | Active | Active | Active | Active | OC[C@H]1C[C@@H](Nc2nc(Nc3cncnc3)ncc2-c2nc3ccccc3s2)[C@H](O)[C@@H]1O
20 | 5.19 | Active | Active | Active | Active | Active | Active | Nc1nc(N)c(-c2nc3ccccc3s2)c(N[C@@H]2C[C@H](CO)[C@@H](O)[C@H]2O)n1
21 | 4.7 | Active | Active | Active | Active | Active | Active | Nc1ncc(-c2nccs2)c(N[C@@H]2C[C@H](CO)[C@@H](O)[C@H]2O)n1
22 | 1.14 | Active | Active | Active | Active | Active | Active | Nc1ncc(-c2cnc3ccccn23)c(N[C@@H]2C[C@H](CO)[C@@H](O)[C@H]2O)n1
23 | 1.06 | Active | Active | Active | Active | Active | Active | Cc1nc(N)nc(N[C@@H]2C[C@H](CO)[C@@H](O)[C@H]2O)c1-c1nc2ccccc2s1
24 | 1 | Active | Active | Active | Active | Active | Active | Cc1cc(Nc2ncc(-c3nc4ccccc4s3)c(N[C@@H]3C[C@H](CO)[C@@H](O)[C@H]3O)n2)ccn1
25 | 1 | Active | Active | Active | Active | Active | Active | Cc1cc(Nc2ncc(-c3nc4ccccc4s3)c(N[C@@H]3C[C@H](CO)[C@@H](O)[C@H]3O)n2)cc(C)n1
26 | 0.53 | Active | Active | Active | Active | Active | Active | Nc1ncc(-c2nc3cccnc3s2)c(N[C@@H]2C[C@H](CO)[C@@H](O)[C@H]2O)n1
27 | 0.403 | Active | Active | Active | Active | Active | Active | OC[C@H]1C[C@@H](Nc2nc(NC3CCC3)ncc2-c2nc3ccccc3s2)[C@H](O)[C@@H]1O
28 | 0.333 | Active | Active | Active | Active | Active | Active | OC[C@H]1C[C@@H](Nc2nc(NCC3CC3)ncc2-c2nc3ccccc3s2)[C@H](O)[C@@H]1O
29 | 0.3 | Active | Active | Active | Active | Active | Active | Cc1cc(Nc2ncc(-c3nc4ccncc4s3)c(N[C@@H]3C[C@H](CO)[C@@H](O)[C@H]3O)n2)cc(C)n1
